Several values for one entry are separate records, joined by “and”; a condition that tells them apart may be missing. Equal values may be shown once.
Key:
[1] = clinical use, prior art; cited from earlier work
[2] = acute toxicity test in rats; type: in vivo; conditions: rat, in vivo
Description: (§1) The acute toxicity test was carried out by oral, intraperitoneal and subcutaneous administration to 7- to 8-week old Sic-SD rats and Slc:ICr mice. The case of death was observed within 5 days from the start of the administration.

[3] = test system: Sic-SD rats; experiment: acute toxicity test in rats; type: in vivo; conditions: oral, intraperitoneal and subcutaneous
Description: as §1

[4] = test system: uric acid level in serum; experiment: phase I clinical test: uric acid level in serum of healthy adult men (enzymatic method); type: in vivo
Description: Capsules containing 300 mg of the compound of the present invention, N-{3-[4"-(2",6"-dimethylheptyl)phenyl]butanoyl}ethanolamine, were administered to 5 healthy adult men for 7 days three times per day after meals. For comparison, a placebo was administered to two other healthy adult men. Thus, the phase I clinical test was conducted.
[…] With respect to the measured values, the significance test was conducted between the group to which the compound of the present invention was administered and the group to which the placebo was administered.
In the above table, each value indicates the uric acid level (mg/dl) in serum, and A through G in the column of "Healthy man" represent the adult men to whom the medicine was administered.

[5] = disclosed in Japanese Patent Laid-Open No. 210050/1986; cited from earlier work
[6] = solubility
[7] = acute toxicity test in mice; conditions: mouse, in vivo
Description: as §1

For `Oc1ncnc2[nH]ncc12` [allopurinol], the adverse effects [1] is given as “causes efflorescence, gastrointestinal disorders, liver troubles and hematogenic organ troubles”.
For `CC(C)CCCC(C)Cc1ccc(C(C)CC(=O)NCCO)cc1` (stereo not drawn) [compound of the present invention, N-{3-[4'-(2",6"-dimethylheptyl)phenyl]butanoyl}ethanolamine], the LD50 ([2]; ip, female, intraperitoneal) was 572 mg/kg, the LD50 ([2]; ip, male, intraperitoneal) was 1340 mg/kg and the LD50 ([2]; po, female) was 1910 mg/kg. The LD50 ([2]; po, male) was 4260 mg/kg, the LD50 ([2]; sc, female, subcutaneous) was 6350 mg/kg and the LD50 ([2]; sc, male, subcutaneous) was > 8000 mg/kg. For the same compound, the “time of death from the start of the administration” value [3] was ≤ 5 days, the “accumulation of the medicinal effect” value ([4]; after stop of administration) was “not observed” and the “uric acid level in serum when administration was stopped” value ([4]; after stop of administration) was “promptly elevated to the value before the start of the administration”. For the same compound, the “average uric acid level in serum, 1st day” value ([4]; average of men A-E, 1st day, before administration, placebo average 6.0) was 5.8 mg/dL, the “average uric acid level in serum, 4th day” value ([4]; average of men A-E, 4th day, 300 mg three times per day, marked *, placebo average 5.7) was 3.1 mg/dL and the “average uric acid level in serum, 6th day” value ([4]; average of men A-E, 6th day, 300 mg three times per day, marked *, placebo average 5.7) was 2.7 mg/dL. For the same compound, the “average uric acid level in serum, 8th day” value ([4]; average of men A-E, 8th day, 300 mg three times per day for 7 days, marked *, placebo average 5.8) was 3.2 mg/dL, the “average uric acid level in serum, 11th day” value ([4]; average of men A-E, 11th day, after 7 days of administration, placebo average 7.1) was 5.5 mg/dL and the “lowering in the uric acid level in serum” value ([4]; fourth day) was “significant lowering in the uric acid level in serum was observed”. The “uric acid level in serum, 1st day” value ([4]; individual healthy men A-E (one per line), 1st day, before administration, 300 mg capsules three times per day after meals, 7 days, listed as compound of present invention) was 4.9 mg/dL and 6.4 mg/dL and 5.9 mg/dL and 7.0 mg/dL and 4.7 mg/dL, the “uric acid level in serum, 4th day” value ([4]; individual healthy men A-E (one per line), 4th day, 300 mg capsules three times per day after meals, 7 days, listed as compound of present invention) was 8.5 mg/dL and 2.9 mg/dL and 2.6 mg/dL and 3.6 mg/dL and 2.8 mg/dL and the “uric acid level in serum, 6th day” value ([4]; individual healthy men A-E (one per line), 6th day, 300 mg capsules three times per day after meals, 7 days, listed as compound of present invention) was 3.0 mg/dL and 2.6 mg/dL and 2.4 mg/dL and 3.2 mg/dL and 2.5 mg/dL. The “uric acid level in serum, 8th day” value ([4]; individual healthy men A-E (one per line), 8th day, 300 mg capsules three times per day after meals, 7 days, listed as compound of present invention) was 3.2 mg/dL and 3.1 mg/dL and 4.0 mg/dL and 2.7 mg/dL, the “uric acid level in serum, 11th day” value ([4]; individual healthy men A-E (one per line), 11th day, after 7 days of 300 mg capsules three times per day after meals, listed as compound of present invention) was 4.8 mg/dL and 5.6 mg/dL and 7.2 mg/dL and 5.3 mg/dL and the anticholesterolemic action [5] was “has an anticholesterolemic action”. For the same compound, the “solubility in organic solvents” value ([6]; anhydrous ethanol, ethyl acetate, ethanol, chloroform, acetonitrile and n-hexane) was “Highly soluble”, the solubility in water ([6]; water) was “substantially insoluble” and the LD50 ([7]; ip, female, intraperitoneal) was 737 mg/kg. For the same compound, the LD50 ([7]; ip, male, intraperitoneal) was 792 mg/kg, the LD50 ([7]; po, female) was 4580 mg/kg and the LD50 ([7]; po, male) was > 2560 mg/kg. The LD50 ([7]; sc, female, subcutaneous) was > 5000 mg/kg and the LD50 ([7]; sc, male, subcutaneous) was > 5000 mg/kg.
